Measured values taken from patent US20240366598A1, “GLUCOSE-DEPENDENT INSULINOTROPIC POLYPEPTIDE RECEPTOR ANTAGONISTS AND USES THEREOF” (Pfizer Inc., priority 2023, published 2024).

biological target: T1, human Glucose-dependent Insulinotropic Polypeptide Receptor (hGIPR) (Homo sapiens, UniProt P48546); test: Functional in vitro GIPR antagonist potency assay (cAMP HTRF, CHO-K1 cells stably expressing hGIPR, hGIP stimulation at about EC80); assay type: cell-based; settings: geometric mean, hGIP at estimated EC80, examples marked ^2: overall geometric mean of multiple forms (including salts) tested
T1 sequence (P48546 22-466): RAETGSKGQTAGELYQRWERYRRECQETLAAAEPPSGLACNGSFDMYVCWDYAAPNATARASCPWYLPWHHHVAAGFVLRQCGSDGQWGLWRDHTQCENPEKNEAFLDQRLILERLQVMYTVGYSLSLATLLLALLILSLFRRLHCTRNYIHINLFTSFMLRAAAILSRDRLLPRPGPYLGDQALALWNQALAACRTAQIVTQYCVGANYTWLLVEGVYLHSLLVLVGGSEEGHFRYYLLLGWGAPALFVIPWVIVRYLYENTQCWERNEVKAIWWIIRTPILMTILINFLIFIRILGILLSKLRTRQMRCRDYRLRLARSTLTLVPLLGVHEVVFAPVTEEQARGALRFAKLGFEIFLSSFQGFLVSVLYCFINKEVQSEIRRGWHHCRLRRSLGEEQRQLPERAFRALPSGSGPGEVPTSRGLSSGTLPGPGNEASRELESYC
Method in brief: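 CHO-K1 cells expressing hGIPR (2,000 per well) in HBSS/HEPES/0.1% BSA with 200 μM IBMX were preincubated 2 h at 37 °C with an 11-point compound series (0.5% DMSO). hGIP at about EC80 was then added for 30 min, and cAMP was read by HTRF (665/620 nm). Data were normalized between hGIP alone and full antagonism by a reference antagonist at 80 μM.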

Compared with `CC(C)c1ccc(NC(=O)N2CCC[C@@H]2C(=O)Nc2ccc(-c3ccc(O)c(F)c3)cc2)cc1` [Example 54, (2R)-N^2-(3′-fluoro-4′-hydroxy[1,1′-biphenyl]-4-yl)-N^1-[4-(propan-2-yl)phenyl]pyrrolidine-1,2-dicarboxamide], `CC(C)c1ccc(NC(=O)N2CCC[C@@H]2C(=O)Nc2ccc(-c3cccc(O)c3F)cc2)cc1` [Example 66, (2R)-N^2-(2′-fluoro-3′-hydroxy[1,1′-biphenyl]-4-yl)-N^1-[4-(propan-2-yl)phenyl]pyrrolidine-1,2-dicarboxamide] is 2.8-fold higher in IC50: 140 nM for the first, 390 nM for the second.

Going from `O=C(O)c1ccc(-c2ccc(NC(=O)[C@H]3CCCN3C(=O)Nc3ccc(C(F)(F)F)c(Cl)c3)cc2)cn1` [Example 55, 5-{4-[(1-{[3-chloro-4-(trifluoromethyl)phenyl]carbamoyl}-D-prolyl)amino]phenyl}pyridine-2-carboxylic acid] to `O=C(O)c1ccc(-c2ccc(NC(=O)[C@H]3CCCN3C(=O)Nc3ccc(Cl)c(Cl)c3)cc2)cc1` [Example 73, 4′-({1-[(3,4-dichlorophenyl)carbamoyl]-D-prolyl}amino)[1,1′-biphenyl]-4-carboxylic acid], the IC50 rises from 7.6 nM to 12 nM (1.6-fold).

Going from `CC(C)c1ccc(NC(=O)N2CCC[C@@H]2C(=O)Nc2ccc(-c3ccc(C(=O)O)cc3F)cc2)cc1` [Example 56, 2-fluoro-4′-[(1-{[4-(propan-2-yl)phenyl]carbamoyl}-D-prolyl)amino][1,1′-biphenyl]-4-carboxylic acid] to `CC(C)c1ccc(NC(=O)N2CCC[C@@H]2C(=O)Nc2ccc(-c3ccc(C(=O)O)cc3Cl)cc2)cc1` [Example 79, 2-chloro-4′-[(1-{[4-(propan-2-yl)phenyl]carbamoyl}-D-prolyl)amino][1,1′-biphenyl]-4-carboxylic acid], the IC50 rises from 6.3 nM to 15 nM (2.4-fold).

`Cc1cc(C(=O)O)ncc1-c1ccc(NC(=O)[C@H]2CCCN2C(=O)Nc2ccc(C(C)C)cc2)cc1` [Example 57, 4-methyl-5-{4-[(1-{[4-(propan-2-yl)phenyl]carbamoyl}-D-prolyl)amino]phenyl}pyridine-2-carboxylic acid] and `Cc1cc(-c2ccc(NC(=O)[C@H]3CCCN3C(=O)Nc3ccc(C(C)C)cc3)cc2)cnc1C(=O)O` [Example 58, 3-methyl-5-{4-[(1-{[4-(propan-2-yl)phenyl]carbamoyl}-D-prolyl)amino]phenyl}pyridine-2-carboxylic acid] are within 1.5-fold of each other in IC50: 65 nM for the first, 50 nM for the second.

Going from `O=C(O)c1ccc(-c2ccc(NC(=O)[C@H]3CCCN3C(=O)Nc3cc(Cl)cc(Cl)c3)cc2)cc1` [Example 59, 4′-({1-[(3,5-dichlorophenyl)carbamoyl]-D-prolyl}amino)[1,1′-biphenyl]-4-carboxylic acid] to `O=C(O)c1ccc(-c2ccc(NC(=O)[C@H]3CCCN3C(=O)Nc3cccc(Cl)c3)cc2)cc1` [Example 74, 4′-({1-[(3-chlorophenyl)carbamoyl]-D-prolyl}amino)[1,1′-biphenyl]-4-carboxylic acid], the IC50 rises from 35 nM to 82 nM (2.3-fold).

Compared with `Cc1cc(C(=O)O)ccc1-c1ccc(NC(=O)[C@H]2CCCN2C(=O)Nc2ccc(C(C)C)cc2)cn1` [Example 60, 3-methyl-4-{5-[(1-{[4-(propan-2-yl)phenyl]carbamoyl}-D-prolyl)amino]pyridin-2-yl}benzoic acid], `CC(C)c1ccc(NC(=O)N2CCC[C@@H]2C(=O)Nc2ccc(-c3cccc(C(=O)O)c3)nc2)cc1` [Example 78, 3-{5-[(1-{[4-(propan-2-yl)phenyl]carbamoyl}-D-prolyl)amino]pyridin-2-yl}benzoic acid] is 6.9-fold higher in IC50: 21 nM for the first, 145 nM for the second.

`CC(C)c1ccc(NC(=O)N2CCC[C@@H]2C(=O)Nc2ccc(-c3ccc(C(=O)O)cc3)cc2)nc1` [Example 61, 4′-[(1-{[5-(propan-2-yl)pyridin-2-yl]carbamoyl}-D-prolyl)amino][1,1′-biphenyl]-4-carboxylic acid] and `CC(C)c1ccc(NC(=O)N2CCC[C@@H]2C(=O)Nc2ccc(-c3ccc(C(=O)O)cc3)cc2)cn1` [Example 62, 4′-[(1-{[6-(propan-2-yl)pyridin-3-yl]carbamoyl}-D-prolyl)amino][1,1′-biphenyl]-4-carboxylic acid] are within 1.5-fold of each other in IC50: 150 nM for the first, 110 nM for the second.

Going from `O=C(O)c1ccc(-c2ccc(NC(=O)[C@H]3CCCN3C(=O)Nc3ccc(Br)cc3)cc2)cc1` [Example 63, 4′-({1-[(4-bromophenyl)carbamoyl]-D-prolyl}amino)[1,1′-biphenyl]-4-carboxylic acid] to `CC(C)c1ccc(NC(=O)N2CCC[C@@H]2C(=O)Nc2ccc(-c3ccc(C(=O)O)cc3)cc2)cc1F` [Example 64, 4′-[(1-{[3-fluoro-4-(propan-2-yl)phenyl]carbamoyl}-D-prolyl)amino][1,1′-biphenyl]-4-carboxylic acid], the IC50 falls from 6.2 nM to 2.9 nM (2.1-fold). The second is the more potent here.

`CC(C)c1ccc(NC(=O)N2CCC[C@@H]2C(=O)Nc2ccc(-c3ccc(C(=O)O)nc3)cc2F)cc1` [Example 65, 5-{3-fluoro-4-[(1-{[4-(propan-2-yl)phenyl]carbamoyl}-D-prolyl)amino]phenyl}pyridine-2-carboxylic acid] and `CC(C)c1ccc(NC(=O)N2CCC[C@@H]2C(=O)Nc2ccc(-c3cccc(C(=O)O)c3)cn2)cc1` [Example 77, 3-{6-[(1-{[4-(propan-2-yl)phenyl]carbamoyl}-D-prolyl)amino]pyridin-3-yl}benzoic acid] are within 1.5-fold of each other in IC50: 13 nM for the first, 16 nM for the second.

Going from `Cc1cc(C(=O)O)cc(C)c1-c1ccc(NC(=O)[C@H]2CCCN2C(=O)Nc2ccc(C(C)C)cc2)cc1` [Example 67, 2,6-dimethyl-4′-[(1-{[4-(propan-2-yl)phenyl]carbamoyl}-D-prolyl)amino][1,1′-biphenyl]-4-carboxylic acid] to `Cc1cc(-c2ccc(NC(=O)[C@H]3CCCN3C(=O)Nc3ccc(C(C)C)cc3)cc2)cc(F)c1C(=O)O` [Example 69, 3-fluoro-5-methyl-4′-[(1-{[4-(propan-2-yl)phenyl]carbamoyl}-D-prolyl)amino][1,1′-biphenyl]-4-carboxylic acid], the IC50 rises from 14 nM to 47 nM (3.4-fold). The first is the more potent here.

Going from `CC(C)c1ccc(NC(=O)N2CCC[C@@H]2C(=O)Nc2ccc(-c3ccc(C(=O)O)c(C(F)(F)F)c3)cc2)cc1` [Example 68, 4′-[(1-{[4-(propan-2-yl)phenyl]carbamoyl}-D-prolyl)amino]-3-(trifluoromethyl)[1,1′-biphenyl]-4-carboxylic acid] to `CC(C)c1ccc(NC(=O)N2CCC[C@@H]2C(=O)Nc2ccc(-c3c(F)ccc(C(=O)O)c3F)cc2)cc1` [Example 80, 2,6-difluoro-4′-[(1-{[4-(propan-2-yl)phenyl]carbamoyl}-D-prolyl)amino][1,1′-biphenyl]-3-carboxylic acid], the IC50 rises from 38 nM to 400 nM (11-fold).

First: CC(C)c1ccc(NC(=O)N2CCC[C@@H]2C(=O)Nc2ccc(-c3cc(F)c(C(=O)O)cc3Cl)cc2)cc1 [Example 70, 2-chloro-5-fluoro-4′-[(1-{[4-(propan-2-yl)phenyl]carbamoyl}-D-prolyl)amino][1,1′-biphenyl]-4-carboxylic acid]
Second: CC(C)c1ccc(NC(=O)N2CCC[C@@H]2C(=O)Nc2ccc(-c3cc(F)c(C(=O)O)cc3F)cc2)cc1 [Example 82, 2,5-difluoro-4′-[(1-{[4-(propan-2-yl)phenyl]carbamoyl}-D-prolyl)amino][1,1′-biphenyl]-4-carboxylic acid]
The IC50 of the first is 1.8-fold higher: 49 nM for the first, 27 nM for the second. The second is the more potent here.

First: CC(C)c1ccc(NC(=O)N2CCC[C@@H]2C(=O)Nc2ccc(-c3ccc(C(=O)O)cc3C(C)C)cc2)cc1 [Example 71, 2-(propan-2-yl)-4′-[(1-{[4-(propan-2-yl)phenyl]carbamoyl}-D-prolyl)amino][1,1′-biphenyl]-4-carboxylic acid]
Second: Cc1cc(NC(=O)[C@H]2CCCN2C(=O)Nc2ccc(C(C)C)cc2)ccc1-c1ccc(C(=O)O)cc1 [Example 76, 2′-methyl-4′-[(1-{[4-(propan-2-yl)phenyl]carbamoyl}-D-prolyl)amino][1,1′-biphenyl]-4-carboxylic acid]
The IC50 of the first is 4-fold lower: 2.5 nM for the first, 9.9 nM for the second.

Compared with `O=C(O)c1ccc(-c2ccc(NC(=O)[C@H]3CCCN3C(=O)Nc3ccc(C(F)(F)F)nc3)cc2)cc1` [Example 72, 4′-[(1-{[6-(trifluoromethyl)pyridin-3-yl]carbamoyl}-D-prolyl)amino][1,1′-biphenyl]-4-carboxylic acid], `CC(C)c1ccc(NC(=O)N2CCC[C@@H]2C(=O)Nc2ccc(-c3cc(F)c(C(=O)O)c(Cl)c3)cc2)cc1` [Example 83, 3-chloro-5-fluoro-4′-[(1-{[4-(propan-2-yl)phenyl]carbamoyl}-D-prolyl)amino][1,1′-biphenyl]-4-carboxylic acid] is 3.3-fold higher in IC50: 69 nM for the first, 230 nM for the second. The first is the more potent here.

Going from `CC(C)c1ccc(NC(=O)N2CCC[C@@H]2C(=O)Nc2ccc(-c3cccc(C(=O)O)n3)c(F)c2)cc1` [Example 75, 6-{2-fluoro-4-[(1-{[4-(propan-2-yl)phenyl]carbamoyl}-D-prolyl)amino]phenyl}pyridine-2-carboxylic acid] to `Cc1cc(C(=O)O)c(F)cc1-c1ccc(NC(=O)[C@H]2CCCN2C(=O)Nc2ccc(C(C)C)cc2)cc1` [Example 84, 5-fluoro-2-methyl-4′-[(1-{[4-(propan-2-yl)phenyl]carbamoyl}-D-prolyl)amino][1,1′-biphenyl]-4-carboxylic acid], the IC50 falls from 140 nM to 19 nM (7.4-fold). The second is the more potent here.

`COc1cc(C(=O)O)c(F)cc1-c1ccc(NC(=O)[C@H]2CCCN2C(=O)Nc2ccc(C(C)C)cc2)cc1` [Example 81, 5-fluoro-2-methoxy-4′-[(1-{[4-(propan-2-yl)phenyl]carbamoyl}-D-prolyl)amino][1,1′-biphenyl]-4-carboxylic acid] showed an IC50 of 210 nM.
